In patent US6784160B1, “Biologically active pregnene compounds” (Harbor Branch Oceanographic Institution, Inc., priority 2002, dated 2004):

What was measured:
Format in all cases: cell-based
[1] = tested on: PANC-1 human pancreatic cell line; experiment: In vitro proliferation of PANC-1 cells (MTT); settings: 72 hours exposure, read-out: PANC-1 (IC50 μg/ml)
Procedure: (§1) Swiftiapregnene was analyzed as to its effect on the proliferation of PANC-1 human pancreatic and P388 murine leukemia cell lines. P388 cells were obtained from Dr. R. Camalier, National Cancer Institute, Bethesda, Md., and PANC-1 cells were obtained from American Type Culture Collection, Rockville, Md. All cell lines were maintained in tissue culture medium (TCM; Roswell Park Memorial Institute RPMI 1640 supplemented with 100 U/mL penicillin, […] streptomycin, […] 1-glutamine, 18 mM HEPES, 0.05 mg/mL gentamicin (Life Technologies, Gaithersburg, Md.) and 10% fetal bovine serum) and cultured in plastic tissue culture flasks at 37° C. in humidified air containing 5% CO2. Stock cultures of P388 cells were subcultured 1:20 in fresh TCM every 2 to 3 days. Stock cultures of A549 cells were subcultured 1:10 every 3 to 4 days. To assess the antiproliferative effects of agents against the cells, […] cultures (96-well tissue culture plates, Nunc, Denmark) were established at 1×10^5 cells/mL in TCM or TCM containing the test agent at 0.03-5.0 μg/mL. After 48-h exposures, P388 cells were enumerated using 3-[4,5-dimethylthiazol-2-yl]-2,5-diphenyltetrazolium bromide (MTT) as described in the literature (M. C. Alley, et al., Cancer Res. 48:589, 1988). […] The results were expressed as percent inhibition compared to the negative (no drug) control. […]

[2] = tested on: P388 murine leukemia cell line; experiment: In vitro proliferation of P388 cells (MTT); settings: Mus musculus, 48-h exposure, read-out: P388 (IC50 μg/ml)
Procedure: as §1

A549 human lung cells = experiment: Cell cycle progression by flow cytometry (propidium iodide); settings: 100 μg/ml, 24 hr
Procedure: Cell cycle studies were initiated in order to pinpoint a specific phase within the cell cycle in which discodermolide analogs were exerting their antiproliferative effect. A549 human lung cells were used as cell cycle targets to compare the effects of discodermolide and discodermolide analogs on perturbation of the cell cycle. Cell cycle analyses were performed as follows: A549 cells were incubated at 37° C. in 5% CO2 in air in the presence or absence of varying concentrations of discodermolide or discodermolide analogs for 24 hr. Cells were harvested, fixed in ethanol, washed, and stained with 0.2 mg/mL of propidium iodide (P.I.) together with 0.1 mg/mL of RNAse A. Stained preparations were analyzed on a Coulter EPICS ELITE flow cytometer with 488 nm excitation. Fluorescence measurements and resulting DNA histograms were collected from at least 10,000 P.I. stained cells at an emission wavelength of 690 nm. Raw histogram data was further analyzed using a cell cycle analysis program (Multicycle, Phoenix Flow Systems).

Question: What does the source list for `C=CC1CCC2C3CC=C4CC(OC5OC(C)C(O)C(O)C5OC(C)=O)CCC4(C)C3CCC12C` (stereo not drawn) [Swiftiapregnene (I), Swiftiapregnene]?
Answer: IC50 [1]: 7.4 µg/mL; IC50 [2]: 21 µg/mL; effect on cell cycle (sub-G1 population) (A549 human lung cells): increase in the sub-G1 population
